Experimental data published in patent publication US11787780B2 (CORCEPT THERAPEUTICS INCORPORATED, priority 2020, dated 2023).

Key:
[1] = target: glucocorticoid receptor (GR) recombinant ligand binding domain (LBD) (Homo sapiens (Human), UniProt P04150); experiment: GR binding fluorescence polarisation (FP) assay; conditions: displacement of fluorescently tagged ligand
Description: Binding of test compounds to the glucocorticoid receptor (GR) is determined using a fluorescence polarisation (FP) assay utilising a recombinant ligand binding domain (LBD) of GR. The test compounds are assessed by their ability to displace a fluorescently tagged ligand and detection of the resulting decrease in fluorescence polarisation.

[2] = system: induction of TAT by dexamethasone in HepG2 cells; experiment: Hep G2 TAT assay (inhibition of dexamethasone-induced TAT); type: cell-based, human; conditions: challenge of 100 nM dexamethasone, IC50 converted to Ki by Cheng and Prusoff equation

glucocorticoid receptor (GR) recombinant ligand binding domain (LBD), sequence (P04150 524-758): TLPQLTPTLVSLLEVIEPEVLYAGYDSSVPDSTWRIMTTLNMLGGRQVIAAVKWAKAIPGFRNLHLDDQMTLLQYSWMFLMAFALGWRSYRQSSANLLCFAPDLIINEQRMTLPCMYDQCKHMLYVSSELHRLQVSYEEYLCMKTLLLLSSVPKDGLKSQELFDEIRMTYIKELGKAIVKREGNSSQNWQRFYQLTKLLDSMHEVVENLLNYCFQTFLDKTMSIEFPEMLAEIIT

Row | Structure (SMILES) | IC50 [1] [nM] | Ki [2] [nM]
1 | [2H]C([2H])([2H])n1ncc(S(=O)(=O)N2CCC(Cc3ccccc3)(c3cc4cnn(-c5ccc(=O)n(C)c5)c4cc3C)C2)n1 (stereo not shown) [Example 296, 5-(5-(3-benzyl-1-((2-(methyl-d3)-2H-1,2,3-triazol-4-yl)sulfonyl)pyrrolidin-3-yl)-6-methyl-1H-indazol-1-yl)-1-methylpyridin-2(1H)-one] | 6.9 | 44
2 | Cc1cc2c(cnn2-c2ccc(=O)n(C)c2)cc1C1(Cc2ccccc2)CCN(S(=O)(=O)c2cc(F)cc(F)c2)C1 (stereo not shown) [Example 297, 5-(5-(3-benzyl-1-((3,5-difluorophenyl)sulfonyl)pyrrolidin-3-yl)-6-methyl-1H-indazol-1-yl)-1-methylpyridin-2(1H)-one] | 10 | 36
3 | Cc1cc2c(cnn2-c2ccc(=O)n(C)c2)cc1C1(Cc2ccccc2)CCN(S(=O)(=O)c2ccc(F)cc2)C1 (stereo not shown) [Example 298, 5-(5-(3-benzyl-1-((4-fluorophenyl)sulfonyl)pyrrolidin-3-yl)-6-methyl-1H-indazol-1-yl)-1-methylpyridin-2(1H)-one] | 3.6 | 37
4 | Cc1cc2c(cnn2-c2ccc(=O)n(C)c2)cc1C1(Cc2ccccc2)CCN(S(=O)(=O)c2cncc(F)c2)C1 (stereo not shown) [Example 300, 5-(5-(3-benzyl-1-((5-fluoropyridin-3-yl)sulfonyl)pyrrolidin-3-yl)-6-methyl-1H-indazol-1-yl)-1-methylpyridin-2(1H)-one] | 4.6 | 36
5 | Cc1cc2c(cnn2-c2ccc(=O)n(C)c2)cc1C1(Cc2ccccc2)CCN(S(=O)(=O)c2cccc(C(F)(F)F)n2)C1 (stereo not shown) [Example 303, 5-(5-(3-benzyl-1-((6-(trifluoromethyl)pyridin-2-yl)sulfonyl)pyrrolidin-3-yl)-6-methyl-1H-indazol-1-yl)-1-methylpyridin-2(1H)-one] | 4.4 | 24
6 | COc1ccc(S(=O)(=O)N2CCC(Cc3ccccc3)(c3cc4cnn(-c5ccc(=O)n(C)c5)c4cc3C)C2)cn1 (stereo not shown) [Example 306, 5-(5-(3-benzyl-1-((6-methoxypyridin-3-yl)sulfonyl)pyrrolidin-3-yl)-6-methyl-1H-indazol-1-yl)-1-methylpyridin-2(1H)-one] | 11 | 56
7 | Cc1cncc(S(=O)(=O)N2CCC(Cc3ccccc3)(c3cc4cnn(-c5ccc(=O)n(C)c5)c4cc3C)C2)c1 (stereo not shown) [Example 309, 5-(5-(3-benzyl-1-((5-methylpyridin-3-yl)sulfonyl)pyrrolidin-3-yl)-6-methyl-1H-indazol-1-yl)-1-methylpyridin-2(1H)-one] | 11 | 66
8 | COc1cccc(S(=O)(=O)N2CCC(Cc3ccccc3)(c3cc4cnn(-c5ccc(=O)n(C)c5)c4cc3C)C2)c1 (stereo not shown) [Example 310, 5-(5-(3-benzyl-1-((3-methoxyphenyl)sulfonyl)pyrrolidin-3-yl)-6-methyl-1H-indazol-1-yl)-1-methylpyridin-2(1H)-one] | 11 | 66
9 | Cc1cc2c(cnn2-c2ccc(=O)n(C)c2)cc1C1(Cc2ccccc2)CCN(S(=O)(=O)c2cncc(Cl)c2)C1 (stereo not shown) [Example 312, 5-(5-(3-benzyl-1-((5-chloropyridin-3-yl)sulfonyl)pyrrolidin-3-yl)-6-methyl-1H-indazol-1-yl)-1-methylpyridin-2(1H)-one] | 12 | 41
10 | Cc1cc2c(cnn2-c2ccc(=O)n(C)c2)cc1C1(Cc2ccccc2)CCN(S(=O)(=O)c2ccc(Cl)cc2C#N)C1 (stereo not shown) [Example 313, 2-((3-benzyl-3-(6-methyl-1-(1-methyl-6-oxo-1,6-dihydropyridin-3-yl)-1H-indazol-5-yl)pyrrolidin-1-yl)sulfonyl)-5-chlorobenzonitrile] | 8.3 | 50
11 | Cc1cc2c(cnn2-c2ccc(=O)n(C)c2)cc1C1(Cc2ccccc2)CCN(S(=O)(=O)c2ccc(F)cc2F)C1 (stereo not shown) [Example 314, 5-(5-(3-benzyl-1-((2,4-difluorophenyl)sulfonyl)pyrrolidin-3-yl)-6-methyl-1H-indazol-1-yl)-1-methylpyridin-2(1H)-one] | 11 | 56
12 | Cc1cc2c(cnn2-c2ccc(=O)n(C)c2)cc1C1(Cc2ccccc2)CCN(S(=O)(=O)c2c(F)cccc2F)C1 (stereo not shown) [Example 315, 5-(5-(3-benzyl-1-((2,6-difluorophenyl)sulfonyl)pyrrolidin-3-yl)-6-methyl-1H-indazol-1-yl)-1-methylpyridin-2(1H)-one] | 6.7 | 29

Further compounds by falling IC50 [1], results first:

Row | IC50 [1] [nM] | Structure (SMILES) | Ki [2] [nM]
13 | 14 | Cc1cc2c(cnn2-c2ccc(=O)n(C)c2)cc1C1(Cc2ccccc2)CCN(S(=O)(=O)c2ccc(C#N)cc2)C1 (stereo not shown) [Example 308, 4-((3-benzyl-3-(6-methyl-1-(1-methyl-6-oxo-1,6-dihydropyridin-3-yl)-1H-indazol-5-yl)pyrrolidin-1-yl)sulfonyl)benzonitrile] | 62
14 | 12 | Cc1cc2c(cnn2-c2ccc(=O)n(C)c2)cc1C1(Cc2ccccc2)CCN(S(=O)(=O)c2cccc(F)c2)C1 (stereo not shown) [Example 302, 5-(5-(3-benzyl-1-((3-fluorophenyl)sulfonyl)pyrrolidin-3-yl)-6-methyl-1H-indazol-1-yl)-1-methylpyridin-2(1H)-one] | 27
15 | 8.8 | Cc1ccc(S(=O)(=O)N2CCC(Cc3ccccc3)(c3cc4cnn(-c5ccc(=O)n(C)c5)c4cc3C)C2)cn1 (stereo not shown) [Example 299, 5-(5-(3-benzyl-1-((6-methylpyridin-3-yl)sulfonyl)pyrrolidin-3-yl)-6-methyl-1H-indazol-1-yl)-1-methylpyridin-2(1H)-one] | 48
16 | 8.8 | Cc1ccc(S(=O)(=O)N2CCC(Cc3ccccc3)(c3cc4cnn(-c5ccc(=O)n(C)c5)c4cc3C)C2)cc1 (stereo not shown) [Example 307, 5-(5-(3-benzyl-1-tosylpyrrolidin-3-yl)-6-methyl-1H-indazol-1-yl)-1-methylpyridin-2(1H)-one] | 89
17 | 7.5 | COc1ccc(S(=O)(=O)N2CCC(Cc3ccccc3)(c3cc4cnn(-c5ccc(=O)n(C)c5)c4cc3C)C2)cc1 (stereo not shown) [Example 304, 5-(5-(3-benzyl-1-((4-methoxyphenyl)sulfonyl)pyrrolidin-3-yl)-6-methyl-1H-indazol-1-yl)-1-methylpyridin-2(1H)-one] | 48
18 | 4.8 | Cc1cc2c(cnn2-c2ccc(=O)n(C)c2)cc1C1(Cc2ccccc2)CCN(S(=O)(=O)c2ccccc2F)C1 (stereo not shown) [Example 301, 5-(5-(3-benzyl-1-((2-fluorophenyl)sulfonyl)pyrrolidin-3-yl)-6-methyl-1H-indazol-1-yl)-1-methylpyridin-2(1H)-one] | 25
19 | 3 | Cc1cc2c(cnn2-c2ccc(=O)n(C)c2)cc1C1(Cc2ccccc2)CCN(S(=O)(=O)c2ccc(Cl)cc2)C1 (stereo not shown) [Example 305, 5-(5-(3-benzyl-1-((4-chlorophenyl)sulfonyl)pyrrolidin-3-yl)-6-methyl-1H-indazol-1-yl)-1-methylpyridin-2(1H)-one] | 32
20 | 3 | Cc1cc2c(cnn2-c2ccc(=O)n(C)c2)cc1C1(Cc2ccccc2)CCN(S(=O)(=O)c2cnccc2Cl)C1 (stereo not shown) [Example 311, 5-(5-(3-benzyl-1-((4-chloropyridin-3-yl)sulfonyl)pyrrolidin-3-yl)-6-methyl-1H-indazol-1-yl)-1-methylpyridin-2(1H)-one] | 29
